{"source": "patent US11202766B1", "about": "“Pharmaceutical compositions including hydrocodone bitartrate and guaifenesin” (priority 2019, dated 2021)", "experiment": "clinical", "conditions": "for Tmax / half-life: Mean; for Kel of Hydrocodone bitartrate, Mean: oral; for half-life: t1/2 of Hydrocodone bitartrate", "procedure": "A randomized, open-label, balanced, two-treatment, two-period, two sequence, single-dose, two-way crossover oral food effect study was conducted comparing administration of rapidly dissolving pharmaceutical composition tablets including 5 mg hydrocodone bitartrate and 400 mg guaifenesin per tablet to healthy subjects under fed and fasting conditions. The objective of this study was to evaluate the effect of food (high fat, high calorie breakfast) on the rate and extent of absorption of a single oral dose of the rapidly dissolving pharmaceutical composition including 5 mg hydrocodone bitartrate and 400 mg guaifenesin.\nHealthy adult participants were randomized into Treatment A or Treatment B during two study periods (Period 1 and Period 2). Participants received one tablet of the rapidly dissolving pharmaceutical composition (including 5 mg hydrocodone bitartrate and 400 mg guaifenesin per tablet) in each study period with a seven-day (washout) interval between study periods. Participants randomized to Treatment A consumed a high fat, high calorie breakfast (1000 kcal) 30 minutes prior to dosing. Participants randomized to Treatment B fasted overnight and at the time of dosing. Participants were housed at the investigative site not less than 10.5 hours pre-dose until 24 hours post-dose in each period.\nTwenty-one blood samples were collected from each subject during each study period. The venous blood samples (9 mL each) were drawn at pre-dose [(0.00) within 1.00 hour prior to dosing] and at 0.16, 0.33, 0.50, 0.66, 0.83, 1.00, 1.25, 1.50, 2.00, 3.00, 4.00, 5.00, 6.00, 7.00, 8.00, 10.00, 12.00, 16.00, 20.00 and 24.00 hours post-dose. After the collection of blood samples from all the subjects at each time point, samples were centrifuged at 4000 RPM for 10 minutes at 5° C. All plasma samples were then transferred into three polypropylene tubes. The plasma samples were stored at −20±10° C. for a maximum period of 12.0 hours.\nPharmacokinetic parameters were measured for fed and fasting conditions of subjects for both hydrocodone bitartrate and guaifenesin. Plasma samples were assayed for hydrocodone and guaifenesin using an API 4000® LC-MS/MS System, commercially available from AB Sciex LP, Concord, Ontario, Canada. During analysis, standard and quality control samples were distributed throughout each batch of study samples analyzed. No access to the randomization schedule was available until all of the analysis was completed. All the values below the limit of quantification (LOQ) were set to “zero” for all pharmacokinetic and statistical calculations. Any missing sample was reported as “M”. Incurred sample reanalysis was performed as per the current version of ICON SOP BC06, “Incurred Sample Reanalysis Procedures”.\nThe pharmacokinetic parameters for hydrocodone and guaifenesin in plasma were computed using SAS™ v9.3 software, commercially available from SAS Institute, Inc., Cary, N.C., USA.\nThe plasma pharmacokinetic parameters were determined for Cmax, Tmax, AUC0→t, and AUC0→∞. The Cmax and Tmax values were directly determined from the plasma concentration versus time curves. The AUC0→t was calculated by the linear trapezoidal rule. The AUC0→∞ was estimated by summing the area from AUC0→t and […]. The half life, t1/2, was calculated using the formula t1/2=ln 2/Kel, wherein Kel is the slope of the terminal portion of the plasma concentration versus time curve, obtained by linear regression. Natural Logarithmic transformation was done before data analysis for Cmax, AUC0→t, and AUC0→∞. Tmax, t1/2, and Kel were analyzed without transformation.\nA paired t-test was used to assess effects between the two arms of the study. Intra-subject variability in terms of the overall percentage coefficient of variation (% CV) were also evaluated for each PK parameter. […] All values below the limit of quantification (LOQ) were set to “zero” for all pharmacokinetic and statistical calculations.", "key": {"[1]": {"conditions": "fed:fasting, ln-transformed data"}}}
{"smiles": "COc1ccccc1OCC(O)CO", "note": "(centres unmarked) [Guaifenesin, guaifenesin]", "values": [{"measurement": "t1/2 of Guaifenesin, Mean", "setting": "human, in vivo, po", "value": 1.05, "unit": "h"}, {"measurement": "Tmax", "setting": "human, in vivo, po, Tmax of Guaifenesin", "value": 0.64, "unit": "h"}]}
{"smiles": "COc1ccc2c3c1O[C@H]1C(=O)CC[C@H]4[C@@H](C2)N(C)CC[C@]314.O=C(O)C(O)C(O)C(=O)O", "note": "[Hydrocodone bitartrate, hydrocodone bitartrate]", "values": [{"measurement": "Kel of Hydrocodone bitartrate, Mean", "setting": "Fasting Condition (Treatment B), one tablet 5 mg hydrocodone bitartrate/400 mg guaifenesin", "value": 0.14, "unit": "h⁻¹"}, {"measurement": "Kel of Hydrocodone bitartrate, Mean", "setting": "Fed Condition (Treatment A), one tablet 5 mg hydrocodone bitartrate/400 mg guaifenesin", "value": 0.14, "unit": "h⁻¹"}, {"measurement": "Ratio Between Treatment A: Treatment B, Kel of Hydrocodone Bitartrate, Mean", "setting": "fed:fasting", "value": 0.98}, {"measurement": "Ratio Between Treatment A: Treatment B, Tmax of Hydrocodone Bitartrate, Mean", "setting": "fed:fasting", "value": 1.51}, {"measurement": "Ratio Between Treatment A: Treatment B, t1/2 of Hydrocodone Bitartrate, Mean", "setting": "fed:fasting", "value": 1.11}, {"measurement": "Ratio Between Treatment A: Treatment B, *AUC0→t of Hydrocodone Bitartrate, Mean", "setting": "[1]", "value": 1.02}, {"measurement": "Ratio Between Treatment A: Treatment B, *AUC0→∞ of Hydrocodone Bitartrate, Mean", "setting": "[1]", "value": 1.02}, {"measurement": "Ratio Between Treatment A: Treatment B, *Cmax of Hydrocodone Bitartrate, Mean", "setting": "[1]", "value": 1.03}, {"measurement": "Tmax", "setting": "human, in vivo, po, Tmax of Hydrocodone bitartrate, Fasting Condition (Treatment B), one tablet 5 mg hydrocodone bitartrate/400 mg guaifenesin", "value": 1.61, "unit": "h"}, {"measurement": "Tmax", "setting": "human, in vivo, po, Tmax of Hydrocodone bitartrate, Fed Condition (Treatment A), one tablet 5 mg hydrocodone bitartrate/400 mg guaifenesin", "value": 2.08, "unit": "h"}, {"measurement": "half-life", "setting": "human, in vivo, po, Fasting Condition (Treatment B), one tablet 5 mg hydrocodone bitartrate/400 mg guaifenesin", "value": 4.95, "unit": "h"}, {"measurement": "half-life", "setting": "human, in vivo, po, Fed Condition (Treatment A), one tablet 5 mg hydrocodone bitartrate/400 mg guaifenesin", "value": 5.29, "unit": "h"}]}
